The text below walks through data of patent US9359367B2, “Tetrahydroquinazolinone derivatives as PARP inhibitors” (Lupin Limited, priority 2012, dated 2016).

The structures appear in SMILES notation.

For the assay, the target named is T1, PARP1 (Homo sapiens, UniProt P09874).
T1 construct: purchased BPS Bioscience
T1 sequence (P09874 whole entry): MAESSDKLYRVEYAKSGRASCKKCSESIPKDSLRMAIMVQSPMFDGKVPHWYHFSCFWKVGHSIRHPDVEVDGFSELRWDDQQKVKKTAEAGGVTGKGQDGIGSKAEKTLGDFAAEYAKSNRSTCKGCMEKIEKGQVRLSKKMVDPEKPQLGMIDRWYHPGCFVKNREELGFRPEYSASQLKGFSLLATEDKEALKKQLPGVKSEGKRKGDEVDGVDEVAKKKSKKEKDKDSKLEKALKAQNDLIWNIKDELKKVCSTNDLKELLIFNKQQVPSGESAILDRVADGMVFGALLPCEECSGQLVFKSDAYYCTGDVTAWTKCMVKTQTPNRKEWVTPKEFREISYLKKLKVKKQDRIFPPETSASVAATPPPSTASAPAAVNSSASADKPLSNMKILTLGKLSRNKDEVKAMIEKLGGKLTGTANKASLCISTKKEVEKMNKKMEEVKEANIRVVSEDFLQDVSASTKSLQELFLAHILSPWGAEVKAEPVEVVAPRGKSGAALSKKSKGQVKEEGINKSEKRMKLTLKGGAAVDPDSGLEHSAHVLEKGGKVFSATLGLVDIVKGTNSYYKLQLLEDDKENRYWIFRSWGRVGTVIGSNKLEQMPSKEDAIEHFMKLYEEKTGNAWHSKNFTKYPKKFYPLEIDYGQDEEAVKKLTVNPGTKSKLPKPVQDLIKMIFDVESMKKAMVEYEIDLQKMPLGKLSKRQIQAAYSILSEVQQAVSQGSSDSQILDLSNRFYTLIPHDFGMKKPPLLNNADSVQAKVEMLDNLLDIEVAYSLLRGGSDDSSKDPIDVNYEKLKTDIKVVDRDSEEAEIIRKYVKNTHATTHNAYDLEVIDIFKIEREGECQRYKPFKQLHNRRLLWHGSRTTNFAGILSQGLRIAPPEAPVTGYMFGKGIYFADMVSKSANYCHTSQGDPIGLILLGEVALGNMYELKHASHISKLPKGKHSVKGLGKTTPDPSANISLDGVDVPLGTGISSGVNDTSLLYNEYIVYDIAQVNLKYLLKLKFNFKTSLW
Briefly: PARP1 Biochemical Assay (BPS Bioscience kit, chemiluminescence). Conditions: histone-coated plate, biotinilated NAD+, 25° C. for 60 min, luminescence, read-out: PARP 1 inhibition IC50. Summed up: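 Human PARP1 (25–75 ng/well) with activated DNA was incubated with compound on histone-coated wells. Biotinylated NAD+ was added and the reaction ran 60 min at 25 °C. Ribosylation was detected by streptavidin-HRP chemiluminescence, % inhibition was normalised to enzyme-free and uninhibited controls, and IC50 was fitted from % inhibition versus concentration.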
Turning to `CNC(=O)c1csc(N2CCN([C@H]3C=C(c4nc5c(c(=O)[nH]4)CC4(CC5)CC4)CC3)CC2)n1` [Compound 105, (R)—N-methyl-2-(4-(3-(4′-oxo-4′,5′,7′,8′-tetrahydro-3′H-spiro[cyclopropane-1,6′-quinazolin]-2′-yl)cyclopent-2-en-1-yl)piperazin-1-yl)thiazole-4-carboxamide], the IC50 – broadly, the concentration that inhibits the measured activity by half – is 501 to 5000 nM.

In the case of `O=c1[nH]c(C2=C[C@H](N3CCN(c4ccc(F)cc4F)CC3)CC2)nc2c1CC1(CC2)CC1` [Compound 61, (R)-2′-(3-(4-(2,4-difluorophenyl)piperazin-1-yl)cyclopent-1-en-1-yl)-7′,8′-dihydro-3′H-spiro[cyclopropane-1,6′-quinazolin]-4′(5′H)-one], the IC50 lay within 1 to 500 nM.

For `O=c1[nH]c(C2=C[C@H](N3CCN(c4ccc(-c5ccsc5)cc4)CC3)CC2)nc2c1CC1(CC2)CC1` [Compound 148, (R)-2′-(3-(4-(4-(thiophen-3-yl)phenyl)piperazin-1-yl)cyclopent-1-en-1-yl)-7′,8′-dihydro-3′H-spiro[cyclopropane-1,6′-quinazolin]-4′(5′H)-one], the IC50 fell in the range of 501 to 5000 nM.

In the case of `Cc1cc(Cl)ccc1N1CCN([C@H]2C=C(c3nc4c(c(=O)[nH]3)CC3(CC4)CC3)CC2)CC1` [Compound 96, (R)-2′-(3-(4-(4-chloro-2-methylphenyl)piperazin-1-yl)cyclopent-1-en-1-yl)-7′,8′-dihydro-3′H-spiro[cyclopropane-1,6′-quinazolin]-4′(5′H)-one], the IC50 fell in the range of 1 to 500 nM.

As to `Cc1ccc(N2CCN([C@H]3C=C(c4nc5c(c(=O)[nH]4)CC4(CC5)CC4)CC3)CC2)cc1` [Compound 73, (R)-2′-(3-(4-(p-tolyl)piperazin-1-yl)cyclopent-1-en-1-yl)-7′,8′-dihydro-3′H-spiro[cyclopropane-1,6′-quinazolin]-4′(5′H)-one], the IC50 lay in the range of 1 to 500 nM.

With `O=c1[nH]c(CCCN2CC3CCC(C2)N3c2ccc(F)cc2)nc2c1CC1(CC2)CC1` [Compound 8, 2′-(3-(8-(4-fluorophenyl)-3,8-diazabicyclo[3.2.1]octan-3-yl)propyl)-7′,8′-dihydro-3′H-spiro[cyclopropane-1,6′-quinazolin]-4′(5′H)-one], the IC50 is 5000 to 500000 nM.

As to `O=c1[nH]c(C2=C[C@H](N3CCN(c4cccc(Cl)c4)CC3)CC2)nc2c1CC1(CC2)CC1` [Compound 60, (R)-2′-(3-(4-(3-chlorophenyl)piperazin-1-yl)cyclopent-1-en-1-yl)-7′,8′-dihydro-3′H-spiro[cyclopropane-1,6′-quinazolin]-4′(5′H)-one], the half-maximal inhibitory concentration (IC50) lay within 501 to 5000 nM.

In the case of `O=c1[nH]c(C2=C[C@H](N3CCN(c4ccc(F)c(Cl)c4)CC3)CC2)nc2c1CC1(CC2)CC1` [Compound 64, (R)-2′-(3-(4-(3-chloro-4-fluorophenyl)piperazin-1-yl)cyclopent-1-en-1-yl)-7′,8′-dihydro-3′H-spiro[cyclopropane-1,6′-quinazolin]-4′(5′H)-one], the IC50 was in the range of 501 to 5000 nM.

Consider `O=c1[nH]c(C2=C[C@H](N3CCN(c4ccccc4F)CC3)CC2)nc2c1CC1(CC2)CC1` [Compound 116, (R)-2′-(3-(4-(2-fluorophenyl)piperazin-1-yl)cyclopent-1-en-1-yl)-7′,8′-dihydro-3′H-spiro[cyclopropane-1,6′-quinazolin]-4′(5′H)-one], for which the IC50 is 1 to 500 nM.

Turning to `Cc1cccc(N2CCN(CCCc3nc4c(c(=O)[nH]3)CC3(CC4)CC3)CC2)c1` [Compound 23, 2′-(3-(4-(m-tolyl)piperazin-1-yl)propyl)-7′,8′-dihydro-3′H-spiro[cyclopropane-1,6′-quinazolin]-4′(5′H)-one], the IC50 lay within 5000 to 500000 nM.

On to `O=c1[nH]c(CCCN2CCN(c3ccc(Cl)c(Cl)c3)CC2)nc2c1CC1(CC2)CC1` [Compound 10, 2′-(3-(4-(3,4-dichlorophenyl)piperazin-1-yl)propyl)-7′,8′-dihydro-3′H-spiro[cyclopropane-1,6′-quinazolin]-4′(5′H)-one], for which the IC50 was in the range of 501 to 5000 nM.

Take `O=c1[nH]c([C@@H]2CC[C@H](N3CCN(c4ccc(Cl)cc4)CC3)C2)nc2c1CC1(CC2)CC1` [Compound 118, 2′-((1R,3S)-3-(4-(4-chlorophenyl)piperazin-1-yl)cyclopentyl)-7′,8′-dihydro-3′H-spiro[cyclopropane-1,6′-quinazolin]-4′(5′H)-one]: the IC50 fell in the range of 501 to 5000 nM.

`O=c1[nH]c(CCCN2CCN(c3ccccc3Cl)CC2)nc2c1CC1(CC2)CC1` [Compound 14, 2′-(3-(4-(2-chlorophenyl)piperazin-1-yl)propyl)-7′,8′-dihydro-3′H-spiro[cyclopropane-1,6′-quinazolin]-4′(5′H)-one]: the IC50 fell in the range of 1 to 500 nM.

For `O=c1[nH]c(C2=C[C@H](N3CCN(c4ccc(Cl)cc4F)CC3)CC2)nc2c1CC1(CC2)CC1` [Compound 63, (R)-2′-(3-(4-(4-chloro-2-fluorophenyl)piperazin-1-yl)cyclopent-1-en-1-yl)-7′,8′-dihydro-3′H-spiro[cyclopropane-1,6′-quinazolin]-4′(5′H)-one], the IC50 lay within 1 to 500 nM.

On to `O=c1[nH]c(C2=C[C@H](N3CCN(c4ccc(Cl)cn4)CC3)CC2)nc2c1CC1(CC2)CC1` [Compound 57, (R)-2′-(3-(4-(5-chloropyridin-2-yl)piperazin-1-yl)cyclopent-1-en-1-yl)-7′,8′-dihydro-3′H-spiro[cyclopropane-1,6′-quinazolin]-4′(5′H)-one], for which the IC50 was in the range of 1 to 500 nM.

As to `O=c1[nH]c(C2=C[C@H](N3CCN(c4c(F)cccc4F)CC3)CC2)nc2c1CC1(CC2)CC1` [Compound 110, (R)-2′-(3-(4-(2,6-difluorophenyl)piperazin-1-yl)cyclopent-1-en-1-yl)-7′,8′-dihydro-3′H-spiro[cyclopropane-1,6′-quinazolin]-4′(5′H)-one], the IC50 lay within 501 to 5000 nM.

As for `O=c1[nH]c(C2=CC(N3C4CCC3CN(c3ccc(Cl)cc3)C4)CC2)nc2c1CC1(CC2)CC1` (stereo not shown) [Compound 159, 2′-(3-(3-(4-chlorophenyl)-3,8-diazabicyclo[3.2.1]octan-8-yl)cyclopent-1-en-1-yl)-7′,8′-dihydro-3′H-spiro[cyclopropane-1,6′-quinazolin]-4′(5′H)-one], the IC50 lay in the range of 5000 to 500000 nM.

As to `O=c1[nH]c([C@H]2CC[C@H](N3CCN(c4ccc(Cl)cc4)CC3)C2)nc2c1CC1(CC2)CC1` [Compound 119, 2′-((1S,3S)-3-(4-(4-chlorophenyl)piperazin-1-yl)cyclopentyl)-7′,8′-dihydro-3′H-spiro[cyclopropane-1,6′-quinazolin]-4′(5′H)-one], the IC50 was 1 to 500 nM.

Consider `O=c1[nH]c(C2=C[C@H](N3CCN(c4ccc(F)cc4Cl)CC3)CC2)nc2c1CC1(CC2)CC1` [Compound 79, (R)-2′-(3-(4-(2-chloro-4-fluorophenyl)piperazin-1-yl)cyclopent-1-en-1-yl)-7′,8′-dihydro-3′H-spiro[cyclopropane-1,6′-quinazolin]-4′(5′H)-one], for which the IC50 lay within 1 to 500 nM.

Take `CNC(=O)c1ccc(N2CCN([C@@H]3C=C(c4nc5c(c(=O)[nH]4)CC4(CC5)CC4)CC3)CC2)cc1` [Compound 53, (S)—N-methyl-4-(4-(3-(4′-oxo-4′,5′,7′,8′-tetrahydro-3′H-spiro[cyclopropane-1,6′-quinazolin]-2′-yl)cyclopent-2-en-1-yl)piperazin-1-yl)benzamide]: the IC50 lay in the range of 1 to 500 nM.

With `O=c1[nH]c(CCCN2CCN(c3ccccc3)CC2)nc2c1CC1(CC2)CC1` [Compound 13, 2′-(3-(4-phenylpiperazin-1-yl)propyl)-7′,8′-dihydro-3′H-spiro[cyclopropane-1,6′-quinazolin]-4′(5′H)-one], the IC50 was in the range of 501 to 5000 nM.

Consider `Cc1ccccc1N1CCN([C@H]2C=C(c3nc4c(c(=O)[nH]3)CC3(CC4)CC3)CC2)CC1` [Compound 90, (R)-2′-(3-(4-(o-tolyl)piperazin-1-yl)cyclopent-1-en-1-yl)-7′,8′-dihydro-3′H-spiro[cyclopropane-1,6′-quinazolin]-4′(5′H)-one], for which the IC50 was in the range of 1 to 500 nM.

Regarding `O=c1[nH]c(C2=C[C@H](N3CCN(c4ncc(Cl)cc4F)CC3)CC2)nc2c1CC1(CC2)CC1` [Compound 146, (R)-2′-(3-(4-(5-chloro-3-fluoropyridin-2-yl)piperazin-1-yl)cyclopent-1-en-1-yl)-7′,8′-dihydro-3′H-spiro[cyclopropane-1,6′-quinazolin]-4′(5′H)-one], the IC50 was 1 to 500 nM.

In the case of `O=c1[nH]c(CCCN2CCN(c3ccc(Cl)cc3)CC2)nc2c1CCCC21CC1` [Compound 2, 2′-(3-(4-(4-chlorophenyl)piperazin-1-yl)propyl)-6′,7′-dihydro-3′H-spiro[cyclopropane-1,8′-quinazolin]-4′(5′H)-one], the IC50 lay in the range of 1 to 500 nM.

As to `O=c1[nH]c(CCCN2CCN(c3ccccn3)CC2)nc2c1CC1(CC2)CC1` [Compound 20, 2′-(3-(4-(pyridin-2-yl)piperazin-1-yl)propyl)-7′,8′-dihydro-3′H-spiro[cyclopropane-1,6′-quinazolin]-4′(5′H)-one], the IC50 was in the range of 5000 to 500000 nM.

With `O=c1[nH]c(C2=C[C@H](N3CCN(c4ccc(F)c(F)c4)CC3)CC2)nc2c1CC1(CC2)CC1` [Compound 62, (R)-2′-(3-(4-(3,4-difluorophenyl)piperazin-1-yl)cyclopent-1-en-1-yl)-7′,8′-dihydro-3′H-spiro[cyclopropane-1,6′-quinazolin]-4′(5′H)-one], the IC50 was 1 to 500 nM.

On to `CNC(=O)c1ccc(N2CCN([C@H]3C=C(c4nc5c(c(=O)[nH]4)CC4(CC5)CC4)CC3)CC2)cc1F` [Compound 89, (R)-2-fluoro-N-methyl-4-(4-(3-(4′-oxo-4′,5′,7′,8′-tetrahydro-3′H-spiro[cyclopropane-1,6′-quinazolin]-2′-yl)cyclopent-2-en-1-yl)piperazin-1-yl)benzamide], for which the IC50 was in the range of 1 to 500 nM.

For `O=c1[nH]c(CCCN2CCN(c3ccccc3)CC2)nc2c1CC1CC1C2` (stereo not shown) [Compound 25, 2-(3-(4-phenylpiperazin-1-yl)propyl)-5a,6,6a,7-tetrahydro-3H-cyclopropa[g]quinazolin-4(5H)-one], the IC50 fell in the range of 501 to 5000 nM.
